The results in this text go back to patent US11873298B2, “Compounds and uses thereof” (JANSSEN PHARMACEUTICA NV, priority 2017, dated 2024).

This assay concerns the target T1, SCD5 (Homo sapiens, UniProt Q86SK9).
T1 construct: host or cells: S. cerevisiae ole1Δ strain (W303 pdr1Δ pdr3Δ background), plasmid pRS316 with TDH3 promoter and CYC1 terminator
T1 sequence (Q86SK9 1-330): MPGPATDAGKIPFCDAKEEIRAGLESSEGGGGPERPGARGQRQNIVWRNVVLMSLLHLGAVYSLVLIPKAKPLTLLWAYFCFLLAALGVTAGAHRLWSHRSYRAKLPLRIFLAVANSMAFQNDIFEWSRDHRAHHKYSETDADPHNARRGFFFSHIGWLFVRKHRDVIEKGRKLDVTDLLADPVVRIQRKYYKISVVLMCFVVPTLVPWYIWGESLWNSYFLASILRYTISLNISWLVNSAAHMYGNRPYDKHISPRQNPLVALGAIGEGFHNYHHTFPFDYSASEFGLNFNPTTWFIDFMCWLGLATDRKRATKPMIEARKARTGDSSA
Nature of the assay: Growth inhibition of humanized yeast strain expressing SCD5 as sole desaturase. The class given is cell-based. The procedure:
Strain oleΔ (yeast ole1 deletion mutant) was constructed by deleting OLE1 with NAT-MX6 in BY4741, amplifying the deletion cassette from the genomic DNA of the resulting strain with primers flanking the ORF by 1000 bp upstream and downstream, transforming the resulting deletion cassette into W303 pdr1Δ pdr3Δ, and plating transformants on YPD media containing G418 (200 μg/mL) and nourseothricin ([…]) with 0.01% TWEEN®-20 and 0.5 mM oleic and palmitoleic acids.
The coding sequence of yeast OLE1 was also cloned into this plasmid). These clones were then transformed into the ole1Δ strain and plated on CSM-Ura media (CSM lacking uracil) with 2% glucose (w/v) and independent colonies were isolated and amplified.
All compound profiling experiments were performed using the same basic protocol. Different genetic backgrounds (e.g., gene deletions) or conditions (e.g., addition of oleic and palmitoleic acid) were replaced as indicated below.
Yeast were cultured using standard techniques in complete synthetic media (CSM) and yeast nitrogen base supplemented with 2% (w/v) carbon source (glucose, raffinose, or galactose) to regulate the expression of the toxic disease protein. An initial starter culture was inoculated in 3 mL CSM-Glucose media and incubated overnight in a 30° C. shaker incubator (225 rpm). Saturated morning cultures were then diluted 1:20 in fresh CSM-Raffinose media and grown for 6 h to an OD600 (optical density) of ˜0.4-0.8 at 30° C. with shaking.
Compound administration was performed in two separate steps. First, 15 μL of CSM-Galactose (induces expression of toxic protein) was dispensed into clear 384 well assay plates using a MULTIDROP™ Combi reagent dispenser. […] The cultures described above were then diluted to a 2× concentration (0.03 and 0.08 for alpha-synuclein and ApoE, final ODsoo of 0.015 and 0.04) in CSM-Galactose. For wild-type and Ole1/SCD1/SCD5 plasmid-containing strains, the 2× cell density was 0.02. […] For 96-well assays (FIGS. 1A and 1B), compound dilutions in DMSO were generated in 96 well plates and 1 μL was manually pipetted into 96 well clear bottom assay plates.
For experiments using a plasmid-borne copy of Ole1, SCD1, or SCD5 (FIGS. 3B, 6, and 7), media lacking uracil (SX-Ura, where X is glucose, raffinose, or galactose), was used for all steps of the compound profiling protocol to ensure its maintenance throughout the assay.
After yeast delivery, assay plates were incubated under humidified conditions at 30° C. for 24 to 40 h. ApoE4 rescue experiments were stopped at 24 h, aSyn experiments at 40 h, Ole1 at 24 h, and SCD1/SCD5 at 40 h. The growth of yeast was monitored by reading the ODsoo of each well using a microplate reader (Perkin Elmer EnVision™).

Setting [1] is: yeast strain expressing human SCD5 as sole desaturase, Table 8.
The mark [2] stands for this setting: humanized yeast strain expressing SCD5.

SMILES strings stand for the structures.

In general, IC50 refers to the concentration that gives 50% inhibition. Low readings indicate inhibition by little substance, high ones a need for much substance.

In turn, `CC(C)C(=O)N1CCC(c2cc(-c3cc4c(cn3)cnn4C3COC3)on2)CC1` [Compound 1226] showed an IC50 under setting [1] of 20 nM.

Regarding `CC1(OC(=O)N2CCC(c3noc(-c4cccc(C5CCOC5)n4)n3)CC2)CC1` (stereo not shown) [Compound 1197], under setting [1], the IC50 came out at 17900 nM.

As for `CC(C)n1ncc2ccc(-c3noc(N4CCN(C(=O)CC5(C)CC5)CC4)n3)cc21` [Compound 495], the IC50 under setting [2] was 1920 nM.

As for `CC(C)n1ncc2ccc(-c3noc(C4CCN(C(=O)[C@H]5CC(=O)N(c6cccc(C#N)c6)C5)CC4)n3)cc21` [Compound 529], the IC50 under setting [2] was above 45000 nM.

`Cc1noc2cc(-c3noc(C4CCN(C(=O)OC5(C)CC5)CC4)n3)ccc12` [Compound 590] came in with an IC50 under setting [2] above 45000 nM.

As to `CC(C)n1ncc2ccc(N3CC4(CCN(C(=O)OC5CC5)CC4)C3)cc21` [Compound 594], under setting [2], 11800 nM corresponded to half-maximal inhibition (IC50).

`CCC(=O)N1CCC(c2noc(-c3cc(N4CCOCC4)c(F)cn3)n2)CC1` [Compound 1276] had an IC50 under setting [1] of 4680 nM.

In turn, `CC(C)n1ncc2ccc(-c3nc(C4CCN(C(=O)CC5(C)CC5)CC4)no3)cc21` [Compound 546] showed an IC50 under setting [2] of 19 nM.

For `COC(=O)N1CCC(c2noc(-c3cnnc(C4CCOC4)c3)n2)CC1` (stereo not shown) [Compound 1250], under setting [1], the IC50 stood at 10100 nM.

As to `O=C(C1CC1)N1CCC(c2cc(-c3cc4c(cn3)cnn4C3COC3)on2)CC1` [Compound 1236], half-maximal inhibition under setting [1] (IC50) required 200 nM.

In the case of `CC(C)n1ncc2ccc(-c3noc([C@@H]4[C@@H]5CN(C(=O)OC(C)(C)C)C[C@@H]54)n3)cc21` [Compound 498], under setting [2], the IC50 was above 45000 nM.

In turn, `CC(C)(C)OC(=O)N1CCC(c2noc(-c3cc(N4CCC(F)(F)C4)ccn3)n2)CC1` [Compound 1286] yielded an IC50 under setting [1] of 4290 nM.

`CC1(OC(=O)N2CCC(c3nc(-c4ccc5cnn(C6COC6)c5c4)no3)CC2)CC1` [Compound 576] had an IC50 under setting [2] of 28 nM.

Compound `CC(C)n1ncc2ccc(-c3noc(C4CCN(C(=O)c5ccsc5Cl)CC4)n3)cc21` [Compound 575] registered an IC50 under setting [2] of 4680 nM.

The compound `CC(C)(C)OC(=O)N1CCC(c2noc(-c3cc(C4CCOC4)ncc3F)n2)CC1` (stereo not shown) [Compound 1267] registered an IC50 under setting [1] of 2650 nM.

Turning to `CC(C)(C)OC(=O)N1CCC(c2cc(-c3cnc4cnn(C5COC5)c4c3)on2)CC1` [Compound 1225], the midpoint of inhibition under setting [1], the IC50, lay at 120 nM.

Compound `CC(C)(C)OC(=O)N1CCC(c2noc(-c3ccc(F)c(N4CCOC5(CC5)C4)c3)n2)CC1` [Compound 1303] came in with an IC50 under setting [1] of 50 nM.

Compound `CC(C)n1ncc2ccc(-c3noc([C@H]4CC[C@H](N)CC4)n3)cc21` [Compound 596] yielded an IC50 under setting [2] above 45000 nM.

In turn, `O=C(C1CCC1)N1CCC(c2noc(-c3cc(C4CCOC4)ccn3)n2)CC1` (stereo not shown) [Compound 1285] gave an IC50 under setting [1] of 900 nM.

Consider `CC(C)(C)OC(=O)N1CCC(c2noc(-c3cc(C4CCOC4)c(F)cn3)n2)CC1` (stereo not shown) [Compound 1284], for which the IC50 under setting [1] stood at 20 nM.

With `O=C(C1CC1)N1CCC(c2noc(-c3cc(C4CCOC4)c(F)cn3)n2)CC1` (stereo not shown) [Compound 1296], the IC50 under setting [1] amounted to 250 nM.

`CC(C)n1ncc2ccc(-c3noc([C@H]4CC[C@@H](N)CC4)n3)cc21` [Compound 536] displayed an IC50 under setting [2] above 45000 nM.

Under setting [2], `CC(C)OC(=O)N1CCC(c2nc(-c3ccc4oc(=O)n(C(C)C)c4c3)no2)CC1` [Compound 507] displayed an IC50 of 2440 nM.

`COc1ccc(S(=O)(=O)N2CCC(c3nc(-c4ccc5cnn(C(C)C)c5c4)no3)CC2)c(Br)c1` [Compound 539] had an IC50 under setting [2] above 45000 nM.

Under setting [2], `O=C(NCC(=O)N1CCC(c2nc(-c3ccc4cnn(C5COC5)c4c3)no2)CC1)c1ccccc1` [Compound 598] showed an IC50 above 45000 nM.

In turn, `O=C(C1CC1)N1CCC(c2noc(-c3cnc4cnn(C5CCOC5)c4c3)n2)CC1` (stereo not shown) [Compound 1251] yielded an IC50 under setting [1] of 30 nM.

In turn, `CC(C)n1ncc2ccc(-c3nc(C4CCN(C(=O)c5cccc(F)c5)CC4)no3)cc21` [Compound 506] yielded an IC50 under setting [2] of 810 nM.

Compound `CCC(=O)N1CCC(c2cc(-c3cc4c(cn3)cnn4C3COC3)on2)CC1` [Compound 1227] yielded an IC50 under setting [1] of 960 nM.

For the compound `O=C(C1CCC1)N1CCC(c2noc(-c3ccc(F)c(N4CCOCC4)c3)n2)CC1` [Compound 1258], under setting [1], the IC50 came out at 40 nM.

The compound `CC(C)C(=O)N1CCC(c2noc(N3CCc4cnn(C5COC5)c4C3)n2)CC1` [Compound 1223] came in with an IC50 under setting [1] of 2300 nM.

On to `CC(C)n1ncc2ccc(-c3noc(C4CCN(C(=O)c5ccc(F)cc5)CC4)n3)cc21` [Compound 544], for which half-maximal inhibition under setting [2] (IC50) required 10000 nM.

As for `O=C(C1CCC1)N1CCC(c2cc(-c3cnc4cnn(C5COC5)c4c3)on2)CC1` [Compound 1232], under setting [1], the IC50 was determined as 7840 nM.

`CC(C)n1ncc2ccc(-c3noc(C4CCN(C(=O)c5ccsn5)CC4)n3)cc21` [Compound 588] registered an IC50 under setting [2] of 1860 nM.

Under setting [2], `CC(C)n1ncc2ccc(-c3nc(C4CCN(C(=O)c5ccc(Cl)cc5)CC4)no3)cc21` [Compound 505] had an IC50 of 669 nM.

Take `CC1(C(=O)N2CCC(c3noc(-c4cncc(C5CCOC5)c4)n3)CC2)CCC1` (stereo not shown) [Compound 1270]: the IC50 under setting [1] came out at 400 nM.

The compound `Cn1cnc(-c2cc(-c3nc(C4CCN(C(=O)OC(C)(C)C)CC4)no3)ccn2)c1` [Compound 1294] returned an IC50 under setting [1] of 190 nM.

With `COC(=O)N1CCC(c2noc(N3CCc4cnn(C(C)C)c4C3)n2)CC1` [Compound 1260], inhibition under setting [1] was half-maximal at 250 nM (IC50).

With `CC(C)n1ncc2ccc(-c3noc(C4CCN(C(=O)c5ccc(Cl)cc5F)CC4)n3)cc21` [Compound 533], under setting [2], the IC50 worked out at 3330 nM.

`CC(C)(C)OC(=O)N1CCC(c2noc(-c3ccnc(N4CCC(F)(F)C4)c3)n2)CC1` [Compound 1200]: the IC50 under setting [1] is 210 nM.

For the compound `CC(C)(C)OC(=O)N1CCC(c2noc(-c3ccnc(-c4cnco4)c3)n2)CC1` [Compound 1245], the IC50 under setting [1] was 580 nM.

Under setting [2], `CC(=O)N1CCC2(CC1)CN(c1nc(-c3ccc4cnn(C(C)C)c4c3)no1)C2` [Compound 571] gave an IC50 above 45000 nM.

Regarding `CC(C)(C)OC(=O)N1CCC(c2noc(-c3cc(F)c(F)c(N4CCOCC4)c3)n2)CC1` [Compound 1301], under setting [1], the half-maximal inhibitory concentration (IC50) came to 5180 nM.

Under setting [1], `COC(=O)N1CCC(c2noc(-c3cc(C4CCOC4)ncc3F)n2)CC1` (stereo not shown) [Compound 1274] gave an IC50 of 190 nM.

`CC(C)n1ncc2ccc(-c3noc(N4CCN(C(=O)OCC(F)(F)F)CC4)n3)cc21` [Compound 593] registered an IC50 under setting [2] above 45000 nM.

In turn, `CC(C)(C)OC(=O)N1CCC(c2cc(-c3ccnc(C4CCOC4)n3)no2)CC1` (stereo not shown) [Compound 1202] showed an IC50 under setting [1] of 7130 nM.

Under setting [2], `CC(C)n1ncc2ccc(-c3noc(C4=C(F)CN(C(=O)OC(C)(C)C)CC4)n3)cc21` [Compound 510] gave an IC50 of 4160 nM.

Under setting [1], `CC(C)S(=O)(=O)N1CCC(c2noc(-c3ccc4cnn(C5COC5)c4c3)n2)CC1` [Compound 1218] returned an IC50 of 160 nM.

Take `CC(=O)N[C@H]1CC[C@H](c2nc(-c3ccc4cnn(C(C)C)c4c3)no2)CC1` [Compound 535]: the IC50 under setting [2] was above 45000 nM.

Compound `O=C(CC1CC1)N1CCC(c2nc(-c3ccc4cnn(C5COC5)c4c3)no2)CC1` [Compound 558] returned a half-inhibitory concentration (IC50) under setting [2] of 1070 nM.

`Cc1nn(C)c2cc(-c3noc(C4CCN(C(=O)CC5COC5)CC4)n3)ccc12` [Compound 592] yielded an IC50 under setting [2] above 45000 nM.

The compound `CC1(OC(=O)N2CCC(c3noc(-c4cc(C5CCOC5)ccn4)n3)CC2)CC1` (stereo not shown) [Compound 1205] came in with an IC50 under setting [1] of 330 nM.

`CC(C)n1ncc2ccc(-c3noc(C4CCN(C(=O)[C@@H]5CC(=O)N(c6cccc(C#N)c6)C5)CC4)n3)cc21` [Compound 528] yielded an IC50 under setting [2] above 45000 nM.

In the case of `Cn1ncc2ccc(-c3noc(N4CCN(C(=O)OC(C)(C)C)CC4)n3)cc21` [Compound 545], under setting [2], the IC50 is 18900 nM.

Regarding `CC1(C(=O)N2CCC(c3cc(-c4cc5c(cn4)cnn5C4COC4)on3)CC2)CC1` [Compound 1237], the midpoint of inhibition under setting [1], the IC50, lay at 70 nM.

For the compound `O=C(C1CC1)N1CCC(c2noc(-c3cc(C4CCOC4)ccn3)n2)CC1` (stereo not shown) [Compound 1278], under setting [1], the IC50 was 2730 nM.
